{
  "source": "paper PMC10340494",
  "about": "“Sweeteners’ Influence on In Vitro α-Glucosidase Inhibitory Activity, Cytotoxicity, Stability and In Vivo Bioavailability of the Anthocyanins from Lingonberry Jams” (Foods, 2023)",
  "origin": "cited, not measured here",
  "key": {"maltase": {"tested_on": "maltase", "parameters": "method as in PMID 18615280"}, "sucrase": {"tested_on": "sucrase", "parameters": "method as in PMID 18615280"}},
  "data": [
    {"smiles": "OC[C@H]1O[C@@H](Oc2cc3c(O)cc(O)cc3[o+]c2-c2ccc(O)c(O)c2)[C@H](O)[C@@H](O)[C@H]1O", "note": "[cyanidin-3-galactoside]", "values": [
      {"measurement": "Inhibition of maltase", "setting": "maltase", "value": 35, "unit": "%"},
      {"measurement": "Inhibition of sucrase", "setting": "sucrase", "value": 64, "unit": "%"}
    ]}
  ]
}
